Values of other authors, collected in patent US20050058718A1, “Preparations for cigarette toxicity reduction, health enhancement, and addiction elimination” (priority 2003, published 2005).

Experiments:
[1] = tested on: leukoderma in their mouths and throats; settings: 3 ppm selenium in drinking water
[2] = tested on: cancer cells; settings: cancer cells external of the human body treated by selenium
[3] = tested on: cancer incidence
[4] = 1300 people, 200 ug selenium daily for five years

## [Se] [selenium]
[1]
  delay of cancer formation versus control group: two more weeks
[2]
  decrease of carcinogenicity of cancer cells: 60%
[3]; [4]
  reduction of large intestine and rectum cancer incidence: 58%
  reduction of lung cancer incidence: 46%
  reduction of prostate cancer incidence: 63%
[3]; selenium takers sick from cancer
  more chance to survive when sick from cancer: 50%
